From patent US10106501B2, “Nuclear receptor modulators” (AbbVie Inc., priority 2015, dated 2018) come the findings set out here.

The first test concerns the target T1, chimeric human RORγ-Gal4 receptor (Homo sapiens, UniProt P51449).
T1 sequence (P51449 269-508 limits assumed): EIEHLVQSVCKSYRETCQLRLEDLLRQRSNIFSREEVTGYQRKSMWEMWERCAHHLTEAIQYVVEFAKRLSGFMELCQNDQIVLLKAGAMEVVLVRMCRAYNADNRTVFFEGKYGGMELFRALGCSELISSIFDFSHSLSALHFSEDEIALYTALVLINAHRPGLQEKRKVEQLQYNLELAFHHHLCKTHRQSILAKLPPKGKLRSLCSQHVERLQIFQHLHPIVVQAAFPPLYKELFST
The test can be described thus: transient transactivation assay (RORγ-Gal4 luciferase reporter). The following applies: Cos-7 cells transfected with RORγ-Gal4 and 5Gal4 pGL3 TK Luc reporter; overnight incubation; T0901317 at 10^-5 M as reference; read-out: IC50. In kind it is cell-based. (In a reporter assay the amount or activity of a reporter protein is the signal.)
Broadly, the IC50 is the concentration that gives 50% inhibition. With `Cc1cn(Cc2c(Cl)cnc(C(=O)N3CCC(CC(=O)O)CC3)c2Cl)c2c(C)cc(C(F)(F)F)cc12` [Example FR, 2-(1-(3,5-dichloro-4-((3,7-dimethyl-5-(trifluoromethyl)-1H-indol-1-yl)methyl)picolinoyl)piperidin-4-yl)acetic acid], the IC50 was < 100 nM.

Take `COCCC1CCN(C(=O)c2ccc(Cl)c(Cc3cc4c(C)cc(C(F)(F)F)nc4n3C)c2Cl)CC1` [Example FT, (2,4-dichloro-3-((1,4-dimethyl-6-(trifluoromethyl)-1H-pyrrolo[2,3-b]pyridin-2-yl)methyl)phenyl)(4-(2-methoxyethyl)piperidin-1-yl)methanone]: the IC50 is < 100 nM.

In the case of `Cc1cc(C(F)(F)F)nc2c1cc(C(=O)c1c(Cl)ccc(C(=O)N3CCC(C#N)CC3)c1Cl)n2C` [Example FV, 1-(2,4-dichloro-3-(1,4-dimethyl-6-(trifluoromethyl)-1H-pyrrolo[2,3-b]pyridine-2-carbonyl)benzoyl)piperidine-4-carbonitrile], the 50% inhibitory concentration (IC50) was < 100 nM.

`Cc1cc(C(F)(F)F)nc2c1cc(C(=O)c1c(Cl)ccc(C(=O)N3CC[C@@H](C(=O)O)[C@@H](C)C3)c1Cl)n2C` [Example FX, (3R,4R)-1-(2,4-dichloro-3-(1,4-dimethyl-6-(trifluoromethyl)-1H-pyrrolo[2,3-b]pyridine-2-carbonyl)benzoyl)-3-methylpiperidine-4-carboxylic acid]: the IC50 fell in the range of 100 to 500 nM.

Take `Cc1cc(C(F)(F)F)nc2c1cc(C(=O)c1c(Cl)ccc(C(=O)N3CCC(O)CC3)c1Cl)n2C` [Example FZ, (2,4-dichloro-3-(1,4-dimethyl-6-(trifluoromethyl)-1H-pyrrolo[2,3-b]pyridine-2-carbonyl)phenyl)(4-hydroxypiperidin-1-yl)methanone]: the IC50 was < 100 nM.

Take `Cc1ccc(C(=O)N2CCOCC2)c(C)c1C(=O)c1cc2c(C)cc(C(F)(F)F)cc2n1C` [Example G1, (2,6-dimethyl-3-(morpholine-4-carbonyl)phenyl)(1,4-dimethyl-6-(trifluoromethyl)-1H-indol-2-yl)methanone]: the IC50 fell in the range of 100 to 500 nM.

Consider `Cc1cc(C(F)(F)F)nc2c1cc(C(=O)c1c(Cl)ccc(C(=O)N3CCC(S(C)(=O)=O)CC3)c1Cl)n2C` [Example GB, (2,4-dichloro-3-(1,4-dimethyl-6-(trifluoromethyl)-1H-pyrrolo[2,3-b]pyridine-2-carbonyl)phenyl)(4-(methylsulfonyl)piperidin-1-yl)methanone], for which the IC50 was < 100 nM.

As to `Cc1cc(C(F)(F)F)nc2c1cc(Cc1c(Cl)ncc(C(=O)N3CC[C@@H](CC(=O)O)[C@@H](C)C3)c1Cl)n2C` [Example GC, 2-((3R,4S)-1-(4,6-dichloro-5-((1,4-dimethyl-6-(trifluoromethyl)-1H-pyrrolo[2,3-b]pyridin-2-yl)methyl)nicotinoyl)-3-methylpiperidin-4-yl)acetic acid], the IC50 is < 100 nM.

Consider `Cc1cc(C(F)(F)F)nc2c1cc(Cc1c(Cl)ncc(C(=O)N3CCN(S(C)(=O)=O)CC3)c1Cl)n2C` [Example GE, (4,6-dichloro-5-((1,4-dimethyl-6-(trifluoromethyl)-1H-pyrrolo[2,3-b]pyridin-2-yl)methyl)pyridin-3-yl)(4-(methylsulfonyl)piperazin-1-yl)methanone], for which the IC50 lay within 100 to 500 nM.

As for `Cc1cc(C(F)(F)F)nc2c1cc(Cc1c(Cl)ncc(C(=O)N3CCOCC3)c1Cl)n2C` [Example GF, (4,6-dichloro-5-((1,4-dimethyl-6-(trifluoromethyl)-1H-pyrrolo[2,3-b]pyridin-2-yl)methyl)pyridin-3-yl)(morpholino)methanone], the IC50 is < 100 nM.

As for `Cc1cc(C(F)(F)F)nc2c1cc(Cc1c(Cl)ncc(C(=O)N3CCC(S(C)(=O)=O)CC3)c1Cl)n2C` [Example GG, (4,6-dichloro-5-((1,4-dimethyl-6-(trifluoromethyl)-1H-pyrrolo[2,3-b]pyridin-2-yl)methyl)pyridin-3-yl)(4-(methylsulfonyl)piperidin-1-yl)methanone], the IC50 is < 100 nM.

Take `Cn1c(C(=O)c2c(Cl)ccc(C(=O)N3CCC(CC(=O)O)CC3)c2Cl)cc2ccc(OC(F)(F)F)cc21` [Example GI, 2-(1-(2,4-dichloro-3-(1-methyl-6-(trifluoromethoxy)-1H-indole-2-carbonyl)benzoyl)piperidin-4-yl)acetic acid]: the IC50 is < 100 nM.

In the case of `Cn1c(Cc2c(Cl)cnc(C(=O)N3CCC(CC(=O)O)CC3)c2Cl)cc2ccc(OC(F)(F)F)cc21` [Example GK, 2-(1-(3,5-dichloro-4-((1-methyl-6-(trifluoromethoxy)-1H-indol-2-yl)methyl)picolinoyl)piperidin-4-yl)acetic acid], the IC50 was < 100 nM.

With `Cn1c(Cc2c(Cl)ncc(C(=O)N3CCC(CC(=O)O)CC3)c2Cl)cc2c(F)cc(C3CC3)cc21` [Example GN, 2-[1-[4,6-dichloro-5-[(6-cyclopropyl-4-fluoro-1-methyl-1H-indol-2-yl)methyl]pyridine-3-carbonyl]-4-piperidyl]acetic acid], the IC50 is < 100 nM.

For `COC(c1c(C)ccc(C(=O)N2CCOCC2)c1C)c1cc2c(C)cc(C(F)(F)F)cc2n1C` (stereo not drawn) [Example K1, (3-((1,4-dimethyl-6-(trifluoromethyl)-1H-indol-2-yl)(methoxy)methyl)-2,4-dimethylphenyl)(morpholino)methanone], the IC50 is 100 to 500 nM.

Turning to `Cn1c(Cc2c(Cl)ccc(C(=O)N3CCC(CO)CC3)c2Cl)cc2ccc(C(F)(F)F)cc21` [Example L-2], the IC50 lay in the range of 100 to 500 nM.

Take `CC(=O)N1CCN(C(=O)c2ccc(Cl)c(Cc3cc4ccc(C(F)(F)F)cc4n3C)c2Cl)CC1` [Example L-3]: the IC50 lay in the range of 100 to 500 nM.

As for `Cn1c(Cc2c(Cl)ccc(C(=O)N3CC[C@@H](F)[C@H](O)C3)c2Cl)cc2ccc(C(F)(F)F)cc21` [Example L-5], the IC50 was 500 to 1000 nM.

With `Cc1cc(C(F)(F)F)cc2c1CC(Cc1c(Cl)ccc(C(=O)N3CCOCC3)c1Cl)N2C` (stereo not drawn) [Example Q, (2,4-dichloro-3-((1,4-dimethyl-6-(trifluoromethyl)indolin-2-yl)methyl)phenyl)(morpholino)methanone], the IC50 lay in the range of 100 to 500 nM.

As to `Cn1c(Cc2c(Cl)ccc(C(=O)N3CCC(CC(=O)O)CC3)c2Cl)cc2c(Cl)cc(C#N)cc21` [Example R, 2-(1-(2,4-dichloro-3-((4-chloro-6-cyano-1-methyl-1H-indol-2-yl)methyl)benzoyl)piperidin-4-yl)acetic acid], the IC50 is < 100 nM.

Regarding `Cc1cc(C(F)(F)F)cc2c1cc(Cc1c(Cl)ccc(C(=O)N3CCN(C4CC(C(=O)O)C4)CC3)c1Cl)n2C` (stereo not drawn) [Example S, 3-(4-(2,4-dichloro-3-((1,4-dimethyl-6-(trifluoromethyl)-1H-indol-2-yl)methyl)benzoyl)piperazin-1-yl)cyclobutanecarboxylic acid], the IC50 is < 100 nM.

For `Cc1cc(C(F)(F)F)cc2c1cc(Cc1c(Cl)ccc(C(=O)N3CCN(C(C)(C)C(=O)O)CC3)c1Cl)n2C` [Example T, 2-(4-(2,4-dichloro-3-((1,4-dimethyl-6-(trifluoromethyl)-1H-indol-2-yl)methyl)benzoyl)piperazin-1-yl)-2-methylpropanoic acid], the IC50 lay within 100 to 500 nM.

Regarding `Cc1cc(C(F)(F)F)cc2c1cc(Cc1c(Cl)ccc(C(=O)N3CCN(C(C)C(=O)O)CC3)c1Cl)n2C` (stereo not drawn) [Example U, 2-(4-(2,4-dichloro-3-((1,4-dimethyl-6-(trifluoromethyl)-1H-indol-2-yl)methyl)benzoyl)piperazin-1-yl)propanoic acid], the IC50 is < 100 nM.

With `Cc1cc(C(F)(F)F)cc2c1c(Cc1c(Cl)ccc(C(=O)N3CCC(CC(=O)O)CC3)c1Cl)cn2C` [F, 2-(1-(2,4-dichloro-3-((1,4-dimethyl-6-(trifluoromethyl)-1H-indol-3-yl)methyl)benzoyl)piperidin-4-yl)acetic acid], the IC50 was < 100 nM.

Take `Cn1c(Cc2c(Cl)ccc(C(=O)N3CCC(CC(=O)O)CC3)c2Cl)cc2c(Cl)cc(Cl)cc21` [FA, 2-(1-(2,4-dichloro-3-((4,6-dichloro-1-methyl-1H-indol-2-yl)methyl)benzoyl)piperidin-4-yl)acetic acid]: the IC50 is < 100 nM.

On to `Cn1c(Cc2c(Cl)ccc(C(=O)N3CCC(C(=O)O)CC3)c2Cl)cc2c(F)cc(C(F)(F)F)cc21` [FE-2], for which the IC50 is < 100 nM.

For `C[C@@H]1CN(C(=O)c2ccc(Cl)c(Cc3cc4c(F)cc(C(F)(F)F)cc4n3C)c2Cl)CC[C@@H]1C(=O)O` [FE-3], the IC50 is < 100 nM.

Turning to `C[C@H]1CN(C(=O)c2ccc(Cl)c(Cc3cc4c(F)cc(C(F)(F)F)cc4n3C)c2Cl)CC[C@H]1C(=O)O` [FE-4], the IC50 is < 100 nM.

Regarding `Cc1cc(OC(F)F)cc2c1cc(Cc1c(Cl)ccc(C(=O)N3CCC(C(=O)O)C(C)C3)c1Cl)n2C` (stereo not drawn) [FF-1], the IC50 is < 100 nM.

For `Cc1cc(OC(F)F)cc2c1cc(Cc1c(Cl)ccc(C(=O)N3CCC(C(=O)O)CC3)c1Cl)n2C` [FF-2], the IC50 is < 100 nM.

For `Cn1c(Cc2c(Cl)ccc(C(=O)N3CCC(C(=O)O)CC3)c2Cl)cc2ccc(OC(F)(F)F)cc21` [FI-1], the IC50 was < 100 nM.

The test is the same for the next values; noted with them: read-out: IC50.
Take `Cc1cc(C(F)(F)F)nc2c1cc(C(=O)c1c(Cl)ccc(C(=O)N3CC[C@@H](CC(=O)O)[C@@H](C)C3)c1Cl)n2C.Cc1cc(C(F)(F)F)nc2c1cc(C(=O)c1c(Cl)ccc(C(=O)N3CC[C@@H](CC(=O)O)[C@H](C)C3)c1Cl)n2C.Cc1cc(C(F)(F)F)nc2c1cc(C(=O)c1c(Cl)ccc(C(=O)N3CC[C@H](CC(=O)O)[C@@H](C)C3)c1Cl)n2C.Cc1cc(C(F)(F)F)nc2c1cc(C(=O)c1c(Cl)ccc(C(=O)N3CC[C@H](CC(=O)O)[C@H](C)C3)c1Cl)n2C` [Example GA]: the IC50 is < 100 nM.

Consider `Cc1cc(C(F)(F)F)nc2c1cc(Cc1c(Cl)cnc(C(=O)N3CCOCC3)c1Cl)n2C` [Example GH, (3,5-dichloro-4-((1,4-dimethyl-6-(trifluoromethyl)-1H-pyrrolo[2,3-b]pyridin-2-yl)methyl)pyridin-2-yl)(morpholino)methanone], for which the IC50 was < 100 nM.
